Assays:
Type in all cases: biochemical
[1] = target: T1, Zap70 (Homo sapiens, UniProt P43403); test: Zap70 kinase assay (ELISA or Alphascreen); conditions: read-out: Zap70 inhibition of enzyme activity
T1 sequence (P43403 338-600 limits assumed): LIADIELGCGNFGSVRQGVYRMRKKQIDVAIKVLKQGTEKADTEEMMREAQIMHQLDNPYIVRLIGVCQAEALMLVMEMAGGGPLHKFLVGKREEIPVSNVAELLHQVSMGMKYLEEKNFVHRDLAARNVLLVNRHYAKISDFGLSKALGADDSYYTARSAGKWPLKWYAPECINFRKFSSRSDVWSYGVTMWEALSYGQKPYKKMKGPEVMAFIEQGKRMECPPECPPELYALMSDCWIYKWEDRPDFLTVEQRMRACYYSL
Experimental: (§1) Kinase assays were performed in a 96 well capture-based ELISA assay or in 384 well Optiplates (Packard) using an Alphascreen Protein Tyrosine Kinase kit. In either case using approximately 1.5 μg of affinity purified PTK domain in the presence of 50 mM HEPES, pH 7.5, 10 mM MgCl2, 150 mM NaCl and 10 μM-1 mM ATP. The biotinylated substrate biotin-EGPWLEEEEEAYGWMDF-NH2 (SEQ ID NO:9) (final concentration 5 μM) was used as substrate. In the ELISA assay tyrosine phosphorylation was quantitated following transfer to an avidin coated ELISA plate using peroxidase-linked anti-phosphotyrosine antibody PY20. In the Alphascreen assay, Alphascreen phosphotyrosine acceptor beads followed by streptavidin donor beads were added under subdued light. The ELISA plates were read on a BMG Fluorostar, the Alphascreen plates were read on a Packard Fusion Alpha. Inhibitors were added to the assays fifteen minutes prior to the addition of ATP. Inhibitors were added in aqueous […] concentrations never exceeding 1%.

[2] = target: hck (Homo sapiens, UniProt P08631); test: hck kinase assay (ELISA or Alphascreen); conditions: read-out: hck inhibition of enzyme activity
Chain of hck (P08631 262-515 limits assumed, species assumed): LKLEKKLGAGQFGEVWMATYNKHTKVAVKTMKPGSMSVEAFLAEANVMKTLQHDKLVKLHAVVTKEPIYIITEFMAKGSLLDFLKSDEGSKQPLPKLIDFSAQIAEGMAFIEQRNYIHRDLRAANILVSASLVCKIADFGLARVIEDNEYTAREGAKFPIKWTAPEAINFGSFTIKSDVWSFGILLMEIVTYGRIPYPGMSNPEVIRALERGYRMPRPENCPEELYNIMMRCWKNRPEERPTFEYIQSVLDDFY
Experimental: as §1

[3] = target: T2, human JAK2 (Homo sapiens, UniProt O60674); test: JAK2 kinase assay (ELISA or Alphascreen); conditions: read-out: Jak2 inhibition of enzyme activity
T2 construct: The kinase domain of human JAK2 was amplified from U937mRNA; His tag (from the pFastBac HTc vector) (N); made in house; host or cells: baculovirus; Sf9 for virus, High Five insect cells for production
T2 sequence (O60674 849-1124 limits assumed): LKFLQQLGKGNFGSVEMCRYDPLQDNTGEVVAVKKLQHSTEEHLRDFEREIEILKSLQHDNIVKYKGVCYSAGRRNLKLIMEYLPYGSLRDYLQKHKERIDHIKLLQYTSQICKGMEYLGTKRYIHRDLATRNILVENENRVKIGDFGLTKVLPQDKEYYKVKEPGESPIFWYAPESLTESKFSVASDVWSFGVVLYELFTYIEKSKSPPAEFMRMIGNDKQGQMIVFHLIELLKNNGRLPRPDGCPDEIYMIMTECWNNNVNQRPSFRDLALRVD
Description: The kinase domain of human JAK2 was amplified from U937mRNA using the polymerase chain reaction with the following primers: […]
JAK2 PCR products were doped into the pFastBac HTc expression vector (Gibco) via the Sal I and Not I sites. The JAK2 plasmid was than transformed into competent DH10Bac cells (Gibco), and the recombinant baculovirus produced prepared for transfection into Sf9 insect cells.
(§2) Baculovirus preparations from each of the JAK family members were infected into five liters of High Five cells (Invitrogen) grown in High Five serum free medium (Invitrogen) to a cell density of approximately 1-2×10^6 cells/ml. Cells are infected with virus at a MOI of 0.8-3.0. Cells were harvested and lysed. JAK kinase domains were purified by affinity chromatography on a Probond (Invitrogen) nickel chelate affinity column.
as §1

[4] = target: T3, human JAK3 (Homo sapiens, UniProt P52333); test: JAK3 kinase assay (ELISA or Alphascreen); conditions: read-out: Jak3 inhibition of enzyme activity
T3 construct: The kinase domain of human JAK3 was amplified from U937mRNA; His tag (from the pFastBac HTb vector) (N); made in house; host or cells: baculovirus; Sf9 for virus, High Five insect cells for production
T3 sequence (P52333 822-1111 limits assumed): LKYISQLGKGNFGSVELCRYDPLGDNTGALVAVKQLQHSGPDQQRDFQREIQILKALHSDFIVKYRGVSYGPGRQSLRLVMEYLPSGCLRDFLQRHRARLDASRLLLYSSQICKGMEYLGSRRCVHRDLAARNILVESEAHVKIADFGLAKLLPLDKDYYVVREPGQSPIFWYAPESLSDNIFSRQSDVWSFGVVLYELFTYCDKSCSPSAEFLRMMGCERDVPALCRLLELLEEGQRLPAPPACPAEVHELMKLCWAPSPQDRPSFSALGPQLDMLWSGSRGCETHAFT
Description: The kinase domain of human JAK3 was amplified from U937mRNA using the polymerase chain reaction with the following primers: […]
JAK3 PCR products were cloned into the pFastBac HTb expression vector (Gibco) via the Xho I and Kpn I sites. The JAK3 plasmid was then transformed into competent DH10Bac cells (Gibco), and the recombinant baculovirus produced prepared for transfection into Sf9 insect cells.
as §2, §1

[5] = target: fes (Homo sapiens, UniProt P07332); test: fes kinase assay (ELISA or Alphascreen); conditions: read-out: fes inhibition of enzyme activity
Chain of fes (P07332 561-822 limits assumed, species assumed): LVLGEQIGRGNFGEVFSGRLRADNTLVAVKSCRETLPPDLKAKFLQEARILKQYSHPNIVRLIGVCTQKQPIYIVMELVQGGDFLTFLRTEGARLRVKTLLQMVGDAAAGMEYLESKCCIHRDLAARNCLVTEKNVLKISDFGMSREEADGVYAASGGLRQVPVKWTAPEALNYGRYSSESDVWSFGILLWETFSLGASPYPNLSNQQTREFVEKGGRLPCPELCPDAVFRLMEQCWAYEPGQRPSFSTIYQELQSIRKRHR
Experimental: as §1

[6] = target: T4, abl (Homo sapiens, UniProt P00519); test: abl kinase assay (ELISA or Alphascreen); conditions: read-out: abl inhibition of enzyme activity
T4 sequence (P00519 242-493 limits assumed): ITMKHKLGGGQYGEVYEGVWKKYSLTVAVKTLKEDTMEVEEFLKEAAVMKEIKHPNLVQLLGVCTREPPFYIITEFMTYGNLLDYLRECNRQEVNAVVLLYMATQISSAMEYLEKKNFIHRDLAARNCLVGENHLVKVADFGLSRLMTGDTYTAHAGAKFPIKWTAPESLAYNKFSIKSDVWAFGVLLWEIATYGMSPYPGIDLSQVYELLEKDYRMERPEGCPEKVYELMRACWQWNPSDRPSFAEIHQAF
Experimental: as §1

[7] = target: T5, fms (Homo sapiens, UniProt P07333); test: fms kinase assay (ELISA or Alphascreen); conditions: read-out: fms inhibition of enzyme activity
T5 sequence (P07333 582-910 limits assumed): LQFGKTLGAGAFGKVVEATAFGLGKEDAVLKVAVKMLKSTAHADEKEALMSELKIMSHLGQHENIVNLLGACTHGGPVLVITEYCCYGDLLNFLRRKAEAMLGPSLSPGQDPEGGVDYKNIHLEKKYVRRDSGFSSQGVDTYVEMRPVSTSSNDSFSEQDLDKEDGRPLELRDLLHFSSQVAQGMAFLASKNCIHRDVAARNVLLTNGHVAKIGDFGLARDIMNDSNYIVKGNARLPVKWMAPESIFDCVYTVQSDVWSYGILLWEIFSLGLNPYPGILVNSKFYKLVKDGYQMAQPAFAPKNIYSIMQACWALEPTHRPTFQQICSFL
Experimental: as §1

| inhibition at 10 µM [1] [%] | inhibition at 10 µM [2] [%] | inhibition at 10 µM [3] [%] | inhibition at 10 µM [4] [%] | inhibition at 10 µM [5] [%] | inhibition at 10 µM [6] [%] | inhibition at 10 µM [7] [%] | Compound |
| --- | --- | --- | --- | --- | --- | --- | --- |
| < 50 | < 50 | < 50 | < 50 | < 50 | < 50 | – | Cc1cc(F)ccc1NC(=O)c1cncc(-c2ccc(F)cc2)c1 |
| < 50 | < 50 | < 50 | < 50 | < 50 | < 50 | – | Cc1ccc(CNC(=O)c2cncc(-c3ccc(O)cc3)c2)cc1 |
| < 50 | < 50 | < 50 | < 50 | < 50 | < 50 | – | COc1ccc(CNC(=O)c2cncc(-c3cccnc3)c2)cc1 |
| < 50 | < 50 | < 50 | – | < 50 | < 50 | < 50 | CC(C)C(CO)NC(=O)c1cncc(-c2ccc(F)cc2)c1 (stereo not drawn) |
| < 50 | < 50 | – | – | < 50 | < 50 | < 50 | COc1ccc(NC(=O)c2cncc(-c3cc(OC)c(OC)c(OC)c3)c2)c(OC)c1 |
| < 50 | < 50 | < 50 | < 50 | < 50 | < 50 | – | COc1cccc(-c2cncc(C(=O)N[C@@H](C)c3ccccc3)c2)c1 |
| < 50 | < 50 | < 50 | < 50 | < 50 | < 50 | – | O=C(NCc1ccc(Cl)c(Cl)c1)c1cncc(-c2ccc(O)cc2)c1 |
| < 50 | < 50 | – | – | ≥ 50 | < 50 | < 50 | O=C(NCc1ccc(F)cc1)c1cncc(-c2ccncc2)c1 |
| < 50 | < 50 | < 50 | < 50 | < 50 | < 50 | – | COc1cccc(-c2cncc(C(=O)N[C@H](C)c3ccccc3)c2)c1 |
| < 50 | < 50 | < 50 | – | < 50 | < 50 | < 50 | COc1ccc(NC(=O)c2cncc(-c3cccs3)c2)c(OC)c1 |
| < 50 | < 50 | < 50 | – | < 50 | < 50 | < 50 | COc1cc(-c2cncc(C(=O)NCc3ccncc3)c2)c(Cl)c(OC)c1OC |
| < 50 | < 50 | < 50 | < 50 | < 50 | < 50 | – | C[C@@H](NC(=O)c1cncc(-c2cccs2)c1)c1ccccc1 |
| < 50 | ≥ 50 | < 50 | < 50 | < 50 | < 50 | – | Cc1ccccc1NC(=O)c1cncc(-c2ccc3c(c2)OCO3)c1 |
| < 50 | < 50 | – | – | < 50 | < 50 | < 50 | O=C(NCc1ccc(F)cc1)c1cncc(-c2cccnc2)c1 |
| < 50 | ≥ 50 | < 50 | – | < 50 | < 50 | < 50 | CC(C)NC(=O)c1cncc(-c2ccc(O)cc2)c1 |
| < 50 | < 50 | < 50 | < 50 | < 50 | < 50 | – | O=C(NCc1cccc(F)c1)c1cncc(-c2ccc3c(c2)OCO3)c1 |
| < 50 | < 50 | < 50 | < 50 | < 50 | < 50 | – | O=C(NCCc1ccccc1)c1cncc(-c2cccs2)c1 |
| ≥ 50 | < 50 | – | – | < 50 | < 50 | < 50 | COc1cc(-c2cncc(C(=O)NCCO)c2)cc(OC)c1OC |
| < 50 | < 50 | < 50 | < 50 | – | < 50 | – | O=C(NCCO)c1cncc(-c2ccc3c(c2)OCO3)c1 |
| < 50 | < 50 | < 50 | < 50 | < 50 | < 50 | – | COc1cc(-c2cncc(C(=O)NCCO)c2)ccc1O |
| < 50 | < 50 | – | – | < 50 | < 50 | < 50 | Cc1cc(F)ccc1NC(=O)c1cncc(-c2cccnc2)c1 |
| < 50 | < 50 | < 50 | < 50 | < 50 | < 50 | – | O=C(NCCc1ccccc1)c1cncc(-c2ccc3c(c2)OCO3)c1 |
| < 50 | ≥ 50 | < 50 | < 50 | < 50 | < 50 | – | Cc1ccccc1NC(=O)c1cncc(-c2cccs2)c1 |
| < 50 | < 50 | – | < 50 | < 50 | < 50 | – | O=C(NCc1cccc(F)c1)c1cncc(-c2ccc(O)cc2)c1 |
| < 50 | < 50 | < 50 | < 50 | < 50 | < 50 | – | COc1cc(-c2cncc(C(=O)Nc3ccccc3)c2)c(Cl)c(OC)c1OC |
| < 50 | < 50 | < 50 | < 50 | – | < 50 | – | COc1ccc(NC(=O)c2cncc(-c3ccc(O)cc3)c2)c(OC)c1 |
| < 50 | < 50 | – | – | < 50 | < 50 | < 50 | Cc1cc(F)ccc1NC(=O)c1cncc(-c2ccncc2)c1 |
| < 50 | < 50 | < 50 | < 50 | < 50 | < 50 | – | CC(NC(=O)c1cncc(-c2ccc(O)cc2)c1)c1ccc(F)cc1 (stereo not drawn) |
